According to PMC7838297, “Acyl-CoA thioesterase activity of peroxisomal ABC protein ABCD1 is required for the transport of very long-chain acyl-CoA into peroxisomes” (Scientific Reports, 2021):

How the values were obtained:
Type in all cases: biochemical
[1] = target: T1, His-ABCD1 (human ABCD1) (Homo sapiens, UniProt P33897); assay: ATPase, phosphate release; conditions: 5 mM ATP, 11 mM MgCl2, pH 7.6, 37 °C; ABCD1-liposomes
T1 construct: full-length, His-tagged (tag kept), expressed in Komagataella phaffii pxa1-delta, beta-DDM-solubilised, metal-chelate purified, reconstituted into soybean PC liposomes; about 80 kDa band

[2] = target: T2, His-KpFAA2 (Komagataella phaffii, UniProt F2QZH2); assay: acyl-CoA synthesis, TLC; conditions: 5 mM CoA, 5 mM ATP, 5 mM MgCl2, pH 7.5, 30 °C, 3 h
T2 construct: gene FAA2; His-tagged, expressed in K. phaffii SMD1168, metal-chelate purified as for His-ABCD1
T2 sequence (F2QZH2 1-741): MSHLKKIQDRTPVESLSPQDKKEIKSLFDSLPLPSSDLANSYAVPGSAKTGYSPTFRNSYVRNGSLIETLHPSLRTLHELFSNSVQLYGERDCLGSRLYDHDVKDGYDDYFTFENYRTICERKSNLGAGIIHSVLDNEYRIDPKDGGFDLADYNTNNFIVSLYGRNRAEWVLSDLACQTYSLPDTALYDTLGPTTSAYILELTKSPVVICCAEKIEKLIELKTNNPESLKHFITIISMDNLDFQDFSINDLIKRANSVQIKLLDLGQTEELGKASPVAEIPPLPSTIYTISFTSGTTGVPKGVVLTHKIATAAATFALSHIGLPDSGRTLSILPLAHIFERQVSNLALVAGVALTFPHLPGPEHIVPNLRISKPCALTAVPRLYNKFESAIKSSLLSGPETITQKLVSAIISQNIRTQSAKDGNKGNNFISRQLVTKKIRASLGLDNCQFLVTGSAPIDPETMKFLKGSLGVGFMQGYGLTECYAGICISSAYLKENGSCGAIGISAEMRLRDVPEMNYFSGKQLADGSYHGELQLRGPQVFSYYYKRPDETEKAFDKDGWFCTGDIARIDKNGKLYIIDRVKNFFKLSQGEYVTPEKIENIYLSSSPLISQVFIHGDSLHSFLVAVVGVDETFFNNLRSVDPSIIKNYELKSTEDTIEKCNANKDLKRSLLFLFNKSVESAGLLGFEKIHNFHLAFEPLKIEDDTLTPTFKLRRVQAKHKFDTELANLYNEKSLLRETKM

[3] = target: T1, His-ABCD1 (human ABCD1); assay: thioesterase assay by TLC; in-gel fluorescence of acylated protein; conditions: 1 mM MgCl2, 37 °C; ABCD1-liposomes; covalent acyl (thioester) intermediate
[4] = target: T3, His-ABCD1 (human ABCD1) (Homo sapiens, UniProt P33897, K513A); assay: as above; conditions: 1 mM MgCl2, 37 °C, 30 min; mutant liposomes; covalent acyl intermediate
T3 construct: full-length, His-tagged (tag kept), expressed in Komagataella phaffii pxa1-delta, beta-DDM-solubilised, metal-chelate purified, reconstituted into soybean PC liposomes; about 80 kDa band
T3 sequence (P33897 1-745 K513A): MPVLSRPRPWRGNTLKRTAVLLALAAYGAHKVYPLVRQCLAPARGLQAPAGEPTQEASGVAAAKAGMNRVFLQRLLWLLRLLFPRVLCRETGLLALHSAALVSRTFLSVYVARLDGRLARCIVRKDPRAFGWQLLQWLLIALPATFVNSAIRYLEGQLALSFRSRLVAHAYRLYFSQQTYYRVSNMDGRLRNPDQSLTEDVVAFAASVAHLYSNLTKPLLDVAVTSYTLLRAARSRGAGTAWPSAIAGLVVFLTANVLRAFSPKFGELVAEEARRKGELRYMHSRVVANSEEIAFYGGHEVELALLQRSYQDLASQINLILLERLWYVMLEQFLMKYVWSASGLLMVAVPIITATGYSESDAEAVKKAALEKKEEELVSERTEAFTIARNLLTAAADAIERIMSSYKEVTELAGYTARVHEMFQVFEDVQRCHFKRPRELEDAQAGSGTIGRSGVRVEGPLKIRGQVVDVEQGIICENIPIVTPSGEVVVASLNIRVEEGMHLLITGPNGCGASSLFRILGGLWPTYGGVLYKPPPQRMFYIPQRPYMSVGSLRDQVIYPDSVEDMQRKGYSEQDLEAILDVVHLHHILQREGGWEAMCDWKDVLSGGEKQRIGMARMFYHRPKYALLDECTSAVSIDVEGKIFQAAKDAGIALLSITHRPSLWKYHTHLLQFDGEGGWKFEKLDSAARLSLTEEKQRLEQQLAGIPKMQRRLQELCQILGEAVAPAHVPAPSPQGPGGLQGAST

[5] = target: T1, His-ABCD1 (human ABCD1); assay: liposome transport assay of NBD-C16, dithionite quench, TLC; conditions: read-out: residual NBD-C16 transport at 20 μM

## Nc1ncnc2c1ncn2[C@@H]1O[C@H](COP(=O)(O)OP(=O)(O)OP(=O)(O)O)[C@@H](O)[C@H]1O [ATP]
[1]
  ATPase, phosphate release: ABCD1-liposomes possess ATPase activity

## O=C(O)CCCCCNc1ccc([N+](=O)[O-])c2nonc12 [NBD-C6]
[2]
  acyl-CoA synthesis, TLC: NBD-C6) was incubated with purified His-KpFAA2 to generate NBD-hexanoyl-CoA

## CC(C)(COP(=O)(O)OP(=O)(O)OC[C@H]1O[C@@H](n2cnc3c(N)ncnc32)[C@H](O)[C@@H]1OP(=O)(O)O)[C@@H](O)C(=O)NCCC(=O)NCCSC(=O)CCCCCCCCCCCCCCCNc1ccc([N+](=O)[O-])c2nonc12 [NBD-C16-CoA]
[3]
  thioesterase assay by TLC; in-gel fluorescence of acylated protein: demonstrating that ABCD1 is covalently labeled by NBD-C16
[4]
  thioesterase assay by TLC; in-gel fluorescence of acylated protein: these mutants possess ACOT activity comparable to the wild type and exhibited covalent linkage

## CCCCCCCCCCCCCCCC(=O)SCCNC(=O)CCNC(=O)[C@H](O)C(C)(C)COP(=O)(O)OP(=O)(O)OC[C@H]1O[C@@H](n2cnc3c(N)ncnc32)[C@H](O)[C@@H]1OP(=O)(O)O [palmitoyl-CoA]
[5]
  remaining activity at 20 µM: 3.95 ± 0.7%
